We go through eleven compounds from patent US9464084B2, “P2X7 modulators” (Janssen Pharmaceutica NV, priority 2013, dated 2016).

The first test deals with P2X7 (Homo sapiens (Human), UniProt Q99572). Briefly: P2X7 antagonism in human PBMCs (LPS + Bz-ATP induced IL-1β release, ELISA).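 Note: PBMCs from donor human blood, with a further 1.5 h incubation of the cells in the assay.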 In kind it is cell-based. Conditions: compound 1 μM, LPS 30 ng/ml, Bz-ATP 0.5 mM.
P2X7, sequence (Q99572 whole entry): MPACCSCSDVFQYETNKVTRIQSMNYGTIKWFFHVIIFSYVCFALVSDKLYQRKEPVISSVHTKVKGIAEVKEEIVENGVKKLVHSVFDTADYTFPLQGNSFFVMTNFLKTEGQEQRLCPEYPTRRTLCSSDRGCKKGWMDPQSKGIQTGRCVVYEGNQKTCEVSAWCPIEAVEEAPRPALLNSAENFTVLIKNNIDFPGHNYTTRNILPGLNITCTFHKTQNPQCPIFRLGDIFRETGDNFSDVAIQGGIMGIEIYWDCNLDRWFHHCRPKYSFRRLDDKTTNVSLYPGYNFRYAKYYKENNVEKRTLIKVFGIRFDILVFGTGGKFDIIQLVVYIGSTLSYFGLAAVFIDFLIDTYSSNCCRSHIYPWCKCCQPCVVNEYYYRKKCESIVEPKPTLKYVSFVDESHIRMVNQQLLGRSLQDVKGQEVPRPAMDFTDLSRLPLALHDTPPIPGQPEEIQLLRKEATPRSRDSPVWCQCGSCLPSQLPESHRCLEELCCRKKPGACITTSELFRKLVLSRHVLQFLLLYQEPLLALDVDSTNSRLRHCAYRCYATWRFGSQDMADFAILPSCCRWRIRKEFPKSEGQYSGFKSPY
Turning to `O=C(c1cccc(Cl)c1Cl)N1CCc2c(-c3ccccc3)n[nH]c2C1` [Example 100, 6-[(2,3-Dichlorophenyl)carbonyl]-3-phenyl-4,5,6,7-tetrahydro-1H-pyrazolo[3,4-c]pyridine], the “PBMC 1 μM (% control)” value is reported as 9.2 % control.
Same read-out and setting: for `O=C(c1cccc2c1OC(F)(F)O2)N1CCc2c(ncn2-c2ccccc2)C1` [Example 50, 5-[(2,2-Difluoro-1,3-benzodioxol-4-yl)carbonyl]-1-phenyl-4,5,6,7-tetrahydro-1H-imidazo[4,5-c]pyridine] the value was 96.0 % control.

Still in this test, the particulars now being: compound 10 μM, LPS 30 ng/ml, Bz-ATP 0.5 mM.
On to `Cc1c(C(=O)N2CCc3c(nnn3-c3ncccn3)[C@H]2C)cccc1C(F)(F)F` (single isomer, unassigned) [Example 188, (R*)-(4-methyl-1-(pyrimidin-2-yl)-6,7-dihydro-1H-[1,2,3]triazolo[4,5-c]pyridin-5(4H)-yl)(2-methyl-3-(trifluoromethyl)phenyl)methanone], for which the “PBMC 10 μM (% control)” value is given as −0.7 % control.
The same measure, in the same setting: for `CC1c2ncn(-c3ccc(F)cn3)c2CCN1C(=O)c1ccc(C(C)(C)C)cc1` (centres unmarked) [Example 265, (4-(tert-butyl)phenyl)(1-(5-fluoropyridin-2-yl)-4-methyl-6,7-dihydro-1H-imidazo[4,5-c]pyridin-5(4H)-yl)methanone] the value was 76.5 % control; for `C[C@H]1c2n[nH]c(-c3ncc(F)cn3)c2CCN1C(=O)c1cccc(C(F)(F)F)c1Cl` (single isomer, unassigned) [Example 224, (S*)-(2-chloro-3-(trifluoromethyl)phenyl)(3-(5-fluoropyrimidin-2-yl)-7-methyl-4,5-dihydro-2H-pyrazolo[3,4-c]pyridin-6(7H)-yl)methanone], 103.3 % control; for `Cc1c(C(=O)N2Cc3nnn(-c4ncc(F)cn4)c3C[C@@H]2C)cccc1C(F)(F)F` (single isomer, unassigned) [Example 208, (6S*)-1-(5-Fluoropyrimidin-2-yl)-6-methyl-5-{[2-methyl-3-(trifluoromethyl)phenyl]carbonyl}-4,5,6,7-tetrahydro-1H-[1,2,3]triazolo[4,5-c]pyridine], 20.9 % control.
For `C[C@@H]1c2nnn(-c3ccn[nH]3)c2C[C@H](C)N1C(=O)c1cccc(C(F)(F)F)c1Cl` [Example 310, (2-chloro-3-(trifluoromethyl)phenyl)((4R,6S)-4,6-dimethyl-1-(1H-pyrazol-5-yl)-6,7-dihydro-1H-[1,2,3]triazolo[4,5-c]pyridin-5(4H)-yl)methanone], the “PBMC 10 μM (% control)” value is on record as 12.2 % control.
With `C[C@@H]1c2ncn(-c3ccc(F)cc3)c2CCN1C(=O)c1cccc(C(F)(F)F)c1Cl` (single isomer, unassigned) [Example 46, (4R*)-5-{[2-Chloro-3-(trifluoromethyl)phenyl]carbonyl}-1-(4-fluorophenyl)-4-methyl-4,5,6,7-tetrahydro-1H-imidazo[4,5-c]pyridine], the “PBMC 10 μM (% control)” value came out at 2.1 % control.
For the compound `Cc1c(C(=O)N2Cc3nnn(-c4ncc(F)cn4)c3C[C@H]2C)ccnc1C(F)(F)F` (single isomer, unassigned) [Example 187, (S*)-(1-(5-fluoropyrimidin-2-yl)-6-methyl-6,7-dihydro-1H-[1,2,3]triazolo[4,5-c]pyridin-5(4H)-yl)(3-methyl-2-(trifluoromethyl)pyridin-4-yl)methanone], the “PBMC 10 μM (% control)” value is listed as −0.6 % control.
As for `CC1c2ncn(-c3ncc(F)cn3)c2CCN1C(=O)c1cccc(C(F)(F)F)c1Cl` (centres unmarked) [Example 22, (2-Chloro-3-(trifluoromethyl)phenyl)(1-(5-fluoropyrimidin-2-yl)-4-methyl-6,7-dihydro-1H-imidazo[4,5-c]pyridin-5(4H)-yl)methanone], the “PBMC 10 μM (% control)” value is −15.9 % control.
On the same count and under the same terms, for `C[C@@H]1c2nnn(-c3cc[nH]n3)c2CCN1C(=O)c1cccc(C(F)(F)F)c1Cl` (single isomer, unassigned) [Example 133, (R*)-(2-Chloro-3-(trifluoromethyl)phenyl)(4-methyl-1-(1H-pyrazol-5-yl)-6,7-dihydro-1H-[1,2,3]triazolo[4,5-c]pyridin-5(4H)-yl)methanone] the value was −0.2 % control.
